Measurements taken from ChEMBL document CHEMBL6127100, “Plant based steroidal and triterpenoid sapogenins: Chemistry on diosgenin and biological aspects” (Eur J Med Chem, 2024).
pIC50: −log10 of the molar value.

Key:
Assay type in all cases: functional, cell-based
HeLa = assay: Antiproliferative activity against human HeLa cells assessed as reduction in cell viability measured for 24 hrs by MTT assay
HepG2 = assay: Antiproliferative activity against human HepG2 cells assessed as reduction in cell viability measured for 24 hrs by MTT assay; conditions: HepG2, 24 h
A549 = assay: Antiproliferative activity against human A549 cells assessed as reduction in cells assessed as reduction in cell growth incubated for 72 hrs by MTT assay; conditions: A549, 72 h
A-431 = assay: Antiproliferative activity against human A-431 cells assessed as reduction in cells assessed as reduction in cell growth incubated for 72 hrs by MTT assay; conditions: A-431, 72 h
NCI-H1975 = assay: Antiproliferative activity against human NCI-H1975 cells assessed as reduction in cells assessed as reduction in cell growth incubated for 72 hrs by MTT assay; conditions: NCI-H1975, 72 h
ASPC1 = assay: Antiproliferative activity against human ASPC1 cells assessed as reduction in cells assessed as reduction in cell growth incubated for 72 hrs by MTT assay; conditions: ASPC1, 72 h
HCT-116 = assay: Antiproliferative activity against human HCT-116 cells assessed as reduction in cells assessed as reduction in cell growth incubated for 72 hrs by MTT assay; conditions: HCT-116, 72 h

| SMILES | pIC50 (HeLa) | pIC50 (HepG2) | pIC50 (A549) | pIC50 (A-431) | pIC50 (NCI-H1975) | pIC50 (ASPC1) | pIC50 (HCT-116) |
| --- | --- | --- | --- | --- | --- | --- | --- |
| C[C@@H](CO)CC[C@H]1O[C@H]2C[C@H]3[C@@H]4CC=C5C[C@@H](OC6=C(Cl)C(=O)c7ccccc7C6=O)CC[C@]5(C)[C@H]4CC[C@]3(C)[C@H]2[C@@H]1C | 5.43 | 5.41 | – | – | – | – | – |
| C[C@H](CC[C@H]1O[C@H]2C[C@H]3[C@@H]4CC=C5C[C@@H](OC6=C(Cl)C(=O)c7ccccc7C6=O)CC[C@]5(C)[C@H]4CC[C@]3(C)[C@H]2[C@@H]1C)CO[Si](C)(C)C(C)(C)C | 5.01 | 5.45 | – | – | – | – | – |
| C[C@@H]1CC[C@@]2(OC1)O[C@H]1C[C@H]3[C@@H]4CC=C5C[C@@H](OC(=O)CCCC[N+]6(C)CCOCC6)CC[C@]5(C)[C@H]4CC[C@]3(C)[C@H]1[C@@H]2C | – | – | 5.23 | 5.23 | 5.26 | 5.07 | – |
| C[C@@H]1CC[C@@]2(OC1)O[C@H]1C[C@H]3[C@@H]4CC=C5C[C@@H]([N+]6(C)CCCC6)CC[C@]5(C)[C@H]4CC[C@]3(C)[C@H]1[C@@H]2C | – | – | 4.98 | 4.98 | 4.95 | 5.26 | 5.40 |
| C=CC[N+](CC=C)(CC=C)CCCCC(=O)O[C@H]1CC[C@@]2(C)C(=CC[C@H]3[C@@H]4C[C@@H]5O[C@]6(CC[C@@H](C)CO6)[C@@H](C)[C@@H]5[C@@]4(C)CC[C@@H]32)C1 | – | – | 5.74 | 5.59 | 6.11 | 5.91 | – |
| C[C@@H]1CC[C@@]2(OC1)O[C@H]1C[C@H]3[C@@H]4CC=C5C[C@@H]([N+](C)(C)CC#N)CC[C@]5(C)[C@H]4CC[C@]3(C)[C@H]1[C@@H]2C | – | – | – | 5.08 | 4.69 | 4.71 | 5.01 |
| C[C@@H](CO)CC[C@H]1O[C@H]2C[C@H]3[C@@H]4CC=C5C[C@@H](OC6=C(Cl)C(=O)c7ncccc7C6=O)CC[C@]5(C)[C@H]4CC[C@]3(C)[C@H]2[C@@H]1C | 5.20 | – | – | – | – | – | – |
| C[C@@H]1CC[C@@]2(OC1)O[C@H]1C[C@H]3[C@@H]4CC=C5C[C@@H](OC(=O)CCCC[N+]67CCC(CC6)C(O)C7)CC[C@]5(C)[C@H]4CC[C@]3(C)[C@H]1[C@@H]2C (some centres not stated) | – | – | 5.39 | 5.38 | 5.77 | 5.35 | – |
| C[C@@H]1CC[C@@]2(OC1)O[C@H]1C[C@H]3[C@@H]4CC=C5C[C@@H]([N+](C)(CCO)CCO)CC[C@]5(C)[C@H]4CC[C@]3(C)[C@H]1[C@@H]2C | – | – | 5.27 | 5.49 | – | 4.75 | 4.94 |
| COCC[N+](C)(CCOC)[C@H]1CC[C@@]2(C)C(=CC[C@H]3[C@@H]4C[C@@H]5O[C@]6(CC[C@@H](C)CO6)[C@@H](C)[C@@H]5[C@@]4(C)CC[C@@H]32)C1 | – | – | 5.20 | 5.55 | 5.29 | 4.26 | < 6.00 |
| C[C@@H]1CC[C@@]2(OC1)O[C@H]1C[C@H]3[C@@H]4CC=C5C[C@@H]([N+](C)(CC6CC6)CC6CC6)CC[C@]5(C)[C@H]4CC[C@]3(C)[C@H]1[C@@H]2C | – | – | 5.57 | 5.33 | 5.27 | 5.39 | 5.95 |
| C=C[N+](C)(C=C)[C@H]1CC[C@@]2(C)C(=CC[C@H]3[C@@H]4C[C@@H]5O[C@]6(CC[C@@H](C)CO6)[C@@H](C)[C@@H]5[C@@]4(C)CC[C@@H]32)C1 | – | – | 5.18 | 5.40 | 5.22 | 5.39 | 5.30 |
| C[C@H](CC[C@H]1O[C@H]2C[C@H]3[C@@H]4CC=C5C[C@@H](OC6=C(Cl)C(=O)c7ncccc7C6=O)CC[C@]5(C)[C@H]4CC[C@]3(C)[C@H]2[C@@H]1C)CO[Si](C)(C)C(C)(C)C | 4.91 | 4.91 | – | – | – | – | – |
| C[C@@H]1CC[C@@]2(OC1)O[C@H]1C[C@H]3[C@@H]4CC=C5C[C@@H]([N+](C)(C)C)CC[C@]5(C)[C@H]4CC[C@]3(C)[C@H]1[C@@H]2C | – | – | 4.82 | 5.20 | 4.72 | 5.03 | 5.01 |
| CCCC[N+](C)(CCCC)[C@H]1CC[C@@]2(C)C(=CC[C@H]3[C@@H]4C[C@@H]5O[C@]6(CC[C@@H](C)CO6)[C@@H](C)[C@@H]5[C@@]4(C)CC[C@@H]32)C1 | – | – | 5.62 | 5.41 | 5.19 | > 5.30 | 5.99 |
| C[C@@H]1CC[C@@]2(OC1)O[C@H]1C[C@H]3[C@@H]4CC=C5C[C@@H](OC(=O)CCCC[N+]6(C)CCCCC6)CC[C@]5(C)[C@H]4CC[C@]3(C)[C@H]1[C@@H]2C | – | – | 5.23 | 5.52 | 5.29 | 5.55 | – |
| C[C@@H]1CC[C@@]2(OC1)O[C@H]1C[C@H]3[C@@H]4CC=C5C[C@@H](OC(=O)CCCC[N+]6(CCO)CCOCC6)CC[C@]5(C)[C@H]4CC[C@]3(C)[C@H]1[C@@H]2C | – | – | 4.90 | 5.21 | 5.47 | 4.95 | – |
| C[C@H](CC[C@H]1O[C@H]2C[C@H]3[C@@H]4CC=C5C[C@@H](OC6=C(Cl)C(=O)c7ccccc7C6=O)CC[C@]5(C)[C@H]4CC[C@]3(C)[C@H]2[C@@H]1C)COC1=C(Cl)C(=O)c2ccccc2C1=O | 5.20 | 5.75 | – | – | – | – | – |
| C[C@@H]1CC[C@@]2(OC1)O[C@H]1C[C@H]3[C@@H]4CC=C5C[C@@H](OC(=O)CCCC[N+](C)(C)c6ccccc6)CC[C@]5(C)[C@H]4CC[C@]3(C)[C@H]1[C@@H]2C | – | – | 5.18 | 5.45 | 5.39 | 5.38 | – |
| C[C@@H]1CC[C@@]2(OC1)O[C@H]1C[C@H]3[C@@H]4CC=C5C[C@@H]([N+](C)(CCCCN6C(=O)c7ccccc7C6=O)CCCCN6C(=O)c7ccccc7C6=O)CC[C@]5(C)[C@H]4CC[C@]3(C)[C@H]1[C@@H]2C | – | – | 4.97 | 5.36 | 5.04 | 5.32 | 5.49 |
| C#CC[N+](C)(CC#C)[C@H]1CC[C@@]2(C)C(=CC[C@H]3[C@@H]4C[C@@H]5O[C@]6(CC[C@@H](C)CO6)[C@@H](C)[C@@H]5[C@@]4(C)CC[C@@H]32)C1 | – | – | 4.90 | 4.84 | 5.23 | 5.36 | 5.33 |
| C[C@@H]1CC[C@@]2(OC1)O[C@H]1C[C@H]3[C@@H]4CC=C5C[C@@H](OC(=O)CCCC[N+](C)(C)Cc6ccccc6)CC[C@]5(C)[C@H]4CC[C@]3(C)[C@H]1[C@@H]2C | – | – | 5.28 | 5.73 | 5.82 | 5.15 | – |
| CC[N+](CC)(CC)CCCCC(=O)O[C@H]1CC[C@@]2(C)C(=CC[C@H]3[C@@H]4C[C@@H]5O[C@]6(CC[C@@H](C)CO6)[C@@H](C)[C@@H]5[C@@]4(C)CC[C@@H]32)C1 | – | – | 5.60 | 5.46 | 5.49 | 5.18 | – |
| Cc1ccc2c(c1)C(=O)C(Cl)=C(OC[C@H](C)CC[C@H]1O[C@H]3C[C@H]4[C@@H]5CC=C6C[C@@H](OC7=C(Cl)C(=O)c8cc(C)ccc8C7=O)CC[C@]6(C)[C@H]5CC[C@]4(C)[C@H]3[C@@H]1C)C2=O | 4.84 | 5.04 | – | – | – | – | – |
| C[C@@H]1CC[C@@]2(OC1)O[C@H]1C[C@H]3[C@@H]4CC=C5C[C@@H](OC(=O)CCCC[N+]6(CCO)CCCCC6)CC[C@]5(C)[C@H]4CC[C@]3(C)[C@H]1[C@@H]2C | – | – | 5.33 | 5.38 | 5.77 | 5.22 | – |
| C[C@@H]1CC[C@@]2(OC1)O[C@H]1C[C@H]3[C@@H]4CC=C5C[C@@H]([N+](C)(C/C=C/c6ccccc6)C/C=C/c6ccccc6)CC[C@]5(C)[C@H]4CC[C@]3(C)[C@H]1[C@@H]2C | – | – | 5.01 | > 5.60 | 5.24 | > 5.30 | 6.47 |
| Cc1ccc2c(n1)C(=O)C(Cl)=C(O[C@H]1CC[C@@]3(C)C(=CC[C@H]4[C@@H]5C[C@@H]6O[C@H](CC[C@@H](C)CO)[C@@H](C)[C@@H]6[C@@]5(C)CC[C@@H]43)C1)C2=O | 4.81 | 5.27 | – | – | – | – | – |
| Cc1ccc2c(n1)C(=O)C(Cl)=C(O[C@H]1CC[C@@]3(C)C(=CC[C@H]4[C@@H]5C[C@@H]6O[C@H](CC[C@@H](C)CO[Si](C)(C)C(C)(C)C)[C@@H](C)[C@@H]6[C@@]5(C)CC[C@@H]43)C1)C2=O | 5.01 | 5.45 | – | – | – | – | – |
| CCCC[N+](C)(C)CCCCC(=O)O[C@H]1CC[C@@]2(C)C(=CC[C@H]3[C@@H]4C[C@@H]5O[C@]6(CC[C@@H](C)CO6)[C@@H](C)[C@@H]5[C@@]4(C)CC[C@@H]32)C1 | – | – | 5.55 | 5.51 | 5.43 | 5.56 | – |
| C[C@@H]1CC[C@@]2(OC1)O[C@H]1C[C@H]3[C@@H]4CC=C5C[C@@H](OC(=O)CCCC[N+]6(C)CCCC6)CC[C@]5(C)[C@H]4CC[C@]3(C)[C@H]1[C@@H]2C | – | – | 5.35 | 5.39 | 5.46 | 5.67 | – |
